Measurements as given in patent publication US20150297761A1, “PEPTIDIC STRUCTURES INCORPORATING AN AMINO ACID METAL COMPLEX AND APPLICATIONS IN MAGNETIC RESONANCE IMAGING” (THE GENERAL HOSPITAL CORPORATION, priority 2012, published 2015).

How the values were obtained:
HSA = HSA (Homo sapiens, UniProt P02768); assay: HSA binding by ultrafiltration and ICP-MS (Example 3); assay type: in vitro ADME; settings: 0.1 mM compound, 4.5% (w/v) HSA, 37° C.
Experimental: In order to measure HSA binding of the complexes, a 0.1 mM solution (determined by ICP-MS) of the corresponding Gd complex in 4.5% w/v HSA was prepared and pipetted into a Ultrafree-MC Microcentrifuge Filter (NMWL 5,000 Da, PLCC, Millipore). The mixture is incubated at 37° C. for 10 minutes and subsequently centrifuged at 12,000 rpm for 15 minutes. Binding is determined by measurement of Gd content in the filtrate by ICP-MS.

[1] = Relaxivity in the absence and presence of HSA (Example 3); assay type: physicochemical; settings: for r1 (20 MHz), absence of HSA / r1 (60 MHz), absence of HSA: absence of HSA (first value of cell); for r1 (20 MHz), presence of HSA / r1 (60 MHz), presence of HSA: presence of HSA (second value of cell)
Experimental: ^1H and ^13C NMR spectra were recorded on a Varian 500 NMR system equipped with a 5 mm broadband probe. Longitudinal relaxation times, T1, were measured by using the inversion recovery method on Bruker Minispecs. mq20 (20 MHz) and mq60 (60 MHz). Purification via HPLC of intermediates toward Fmoc-DOTAla was performed using method A: Injection of crude mixture onto preparative HPLC on a Rainin, Dynamax (column: 250 mm Kromasil C18) by using A: 0.1% TFA in water, B: 0.1% TFA in MeCN, flow-rate 15 mL/min, 1 over 23 minutes. HPLC purity analysis (both UV and MS detection) was carried out on an Agilent 1100 system (column: Phenomenex Luna, C18(2) 100/2 mm) with UV detection at 220, 254 and 280 nm by using a method B: A gradient of A(0.1% formic acid in water) to 95% B(0.1% formic acid in MeCN), flow-rate 0.8 mL/min, 1 over 15 minutes.

Sequence of HSA (P02768 25-609): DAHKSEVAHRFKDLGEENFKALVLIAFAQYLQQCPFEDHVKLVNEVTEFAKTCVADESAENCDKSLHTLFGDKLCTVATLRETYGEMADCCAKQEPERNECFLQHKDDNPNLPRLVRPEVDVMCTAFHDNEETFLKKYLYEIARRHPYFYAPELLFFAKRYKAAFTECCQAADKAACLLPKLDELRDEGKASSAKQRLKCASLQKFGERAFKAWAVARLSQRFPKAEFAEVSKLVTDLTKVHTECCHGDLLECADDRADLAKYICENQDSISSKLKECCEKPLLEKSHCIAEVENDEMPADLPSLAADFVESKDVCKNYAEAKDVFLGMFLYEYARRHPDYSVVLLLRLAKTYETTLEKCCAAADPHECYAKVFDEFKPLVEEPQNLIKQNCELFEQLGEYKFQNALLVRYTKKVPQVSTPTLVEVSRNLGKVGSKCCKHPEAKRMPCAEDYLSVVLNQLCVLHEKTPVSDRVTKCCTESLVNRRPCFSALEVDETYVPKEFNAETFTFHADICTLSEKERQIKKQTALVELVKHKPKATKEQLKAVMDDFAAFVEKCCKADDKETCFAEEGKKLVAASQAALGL

| Compound | % HSA binding (HSA) [%] | r1 (20 MHz), absence of HSA [1] [mM⁻¹ s⁻¹] | r1 (20 MHz), presence of HSA [1] [mM⁻¹ s⁻¹] | r1 (60 MHz), absence of HSA [1] [mM⁻¹ s⁻¹] | r1 (60 MHz), presence of HSA [1] [mM⁻¹ s⁻¹] |
| --- | --- | --- | --- | --- | --- |
| C[C@@H](NC(=O)C(CN1CCN(CC(=O)O)CCN(CC(=O)O)CCN(CC(=O)O)CC1)NC(=O)C(N)Cc1cc(I)c(O)c(I)c1)c1ccccc1 (stereo partly drawn) [Gd (13-S), 2,2′,2″-(10-(2-(2-amino-3-(4-hydroxy-3,5-diiodophenyl)propanamido)-3-oxo-3-(((R)-1-phenylethyl)amino)propyl)-1,4,7,10-tetraazacyclododecane-1,4,7-triyl)triacetic acid] | 39 | 7.1 | 18.5 | 6.1 | 10.9 |
| 2,2′,2″-(10-(3-(((1-Carboxy-2-(4-hydroxy-3,5-diiodophenyl)ethyl)-amino)-2-(2-(4-isobutylphenyl)propanamido)-3-oxopropyl)-1,4,7,10-tetraazacyclododecane-1,4,7-triyl)triacetic Acid [Gd (8)] | 90 | 7.1 | 31.8 | 6.7 | 21.1 |
| COC(=O)CNC(=O)C(CN1CCN(CC(=O)O)CCN(CC(=O)O)CCN(CC(=O)O)CC1)NC(=O)C(N)Cc1cc(I)c(O)c(I)c1 (centres unmarked) [Gd (7), 2,2′,2″-(10-(2-(2-amino-3-(4-hydroxy-3,5-diiodophenyl)propanamido)-3-((2-methoxy-2-oxoethyl)amino)-3-oxopropyl)-1,4,7,10-tetraazacyclododecane-1,4,7-triyl)triacetic acid] | 6 | 4.7 | 7.05 | 3.9 | 6.9 |
| C[C@@H](NC(=O)C(CN1CCN(CC(=O)O)CCN(CC(=O)O)CCN(CC(=O)O)CC1)NC(=O)C(N)Cc1cc(I)c(O)c(I)c1)c1ccccc1 (stereo partly drawn) [Gd (13-R), 2,2′,2″-(10-(2-(2-amino-3-(4-hydroxy-3,5-diiodophenyl)propanamido)-3-oxo-3-(((R)-1-phenylethyl)amino)propyl)-1,4,7,10-tetraazacyclododecane-1,4,7-triyl)triacetic acid] | 36 | 6.6 | 18.4 | 6.4 | 11.4 |
